Literature values in patent US8623418B2, “Pharmaceutical composition” (Alpharma Pharmaceuticals LLC, priority 2007, dated 2014).

Conditions: in vivo

O=C1CC[C@@]2(O)[C@H]3Cc4ccc(O)c5c4[C@@]2(CCN3CC2CC2)[C@H]1O5 [naltrexone]
parent drug and metabolites excreted by the kidney: 53-79 % of the dose
